Data taken from paper PMC8017616, “Discovery of two novel laccase-like multicopper oxidases from Pleurotus citrinopileatus and their application in phenolic oligomer synthesis” (Biotechnology for Biofuels, 2021).
Structures can show the parent of a compound that is named as a salt. Where two headings read alike, the source gives them in different places.

Assays:
Settings in all cases: 50 mM phosphate-citrate buffer pH 4; routine assay 35 °C
PcLac1 [1] = test system: T1, PcLac1; assay: spectrophotometric oxidation at […] nm, nonlinear Michaelis-Menten fit; assay type: biochemical, Pleurotus citrinopileatus
T1 construct: native, purified from culture supernatant (Q Sepharose, DEAE Sepharose); 60 kDa by SDS-PAGE

PcLac2 [2] = test system: T2, PcLac2; assay: as above; assay type: biochemical, Pleurotus citrinopileatus
T2 construct: native, purified from culture supernatant (Q Sepharose, DEAE Sepharose); about 75 kDa by SDS-PAGE; band also holds a copper radical oxidase-like protein

PcLac2 [3] = test system: PcLac2
PcLac1 [4] = test system: PcLac1

Compound | Km (PcLac1 [1]) [µM] | Km (PcLac2 [2]) [µM] | Km (PcLac2 [3]) [µM] | Km (PcLac1 [4]) [µM]
COc1cccc(OC)c1O [2,6-DMP, 2,6-dimethoxyphenol] | 672 ± 56 | 1070 ± 105 | – | –
CCn1c(=NN=c2sc3cc(S(=O)(=O)O)ccc3n2CC)sc2cc(S(=O)(=O)O)ccc21 [ABTS, 2,2′-Azino-bis-(3-ethylbenzthioazoline-6-sulfonic acid) diammonium salt] | – | – | 165 ± 15 | 60 ± 7
